Reference: article PMC11995724, “Antibiotic target discovery by integrated phenotypic and activity-based profiling of electrophilic fragments” (Cell chemical biology, 2025)

Assay: in vitro
Settings: human, hek293t cells

SMILES	viability at 48 h, 25 µM [%]
Cc1ccc(NC(=O)C2(CNC(=O)C(C)Cl)CCCC2)cc1C (centres unmarked) [7-J13, 1-[(2-chloropropanamido)methyl]-N-(3,4-dimethylphenyl)cyclopentane-1-carboxamide]	108
O=C(CCl)N(CCCO)C1CCCc2ccccc21 (centres unmarked) [7-J14, 2-chloro-N-(3-hydroxypropyl)-N-(1,2,3,4-tetrahydronaphthalen-1-yl)acetamide]	0.693
COc1ccc2nnc(CNC(=O)C(C)Cl)n2n1 (centres unmarked) [7-J15, 2-chloro-N-({6-methoxy-[1,2,4]triazolo[4,3-b]pyridazin-3-yl}methyl)propanamide]	90.2
CN(C(=O)CCl)C(c1ccc(Cl)cc1)C(F)(F)F (centres unmarked) [7-J16, 2-chloro-N-[1-(4-chlorophenyl)-2,2,2-trifluoroethyl]-N-methylacetamide]	0.718
Cc1cc2ncn(CC(NC(=O)C(C)Cl)C3CC3)c2cc1C (centres unmarked) [7-J17, 2-chloro-N-[1-cyclopropyl-2-(5,6-dimethyl-1H-1,3-benzodiazol-1-yl)ethyl]propanamide]	84.7
O=C(CCl)NCCc1cccc2c1Oc1ccccc1O2 [7-J18, 2-chloro-N-[2-(oxanthren-1-yl)ethyl]acetamide]	0.958
CC(Cl)C(=O)NCc1cc(C(F)(F)F)cs1 (centres unmarked) [7-J19, 2-chloro-N-{[4-(trifluoromethyl)thiophen-2-yl]methyl}propanamide]	97.1
O=C(CCl)N(CC1=CCCOC1)Cc1ccccc1 [7-J20, N-benzyl-2-chloro-N-[(5,6-dihydro-2H-pyran-3-yl)methyl]acetamide]	0.586
O=C(CCl)NCc1cc(O)ccc1Cl [7-J21, 2-chloro-N-[(2-chloro-5-hydroxyphenyl)methyl]acetamide]	0.249
CC(C)C(NC(=O)CCl)c1ccc(Cl)cc1F (centres unmarked) [7-J22, 2-chloro-N-[1-(4-chloro-2-fluorophenyl)-2-methylpropyl]acetamide]	0.584
CC(Cl)C(=O)NCc1ncn(Cc2cccc(F)c2)n1 (centres unmarked) [7-K03, 2-chloro-N-({1-[(3-fluorophenyl)methyl]-1H-1,2,4-triazol-3-yl}methyl)propanamide]	111
CC(Cl)C(=O)N1CCC(n2ncc3ccccc32)C1 (centres unmarked) [7-K04, 2-chloro-1-[3-(1H-indazol-1-yl)pyrrolidin-1-yl]propan-1-one]	92.4
CC(Cl)C(=O)NCc1csc(-c2ccco2)n1 (centres unmarked) [7-K05, 2-chloro-N-{[2-(furan-2-yl)-1,3-thiazol-4-yl]methyl}propanamide]	90.6
CC(Cl)C(=O)N1CCN(C(=O)C(F)(F)F)C2(CCCCC2)C1 (centres unmarked) [7-K06, 2-chloro-1-[1-(2,2,2-trifluoroacetyl)-1,4-diazaspiro[5.5]undecan-4-yl]propan-1-one]	74
CC(Cl)C(=O)N1CCc2sccc2C1c1cccs1 (centres unmarked) [7-K07, 2-chloro-1-[4-(thiophen-2-yl)-4H,5H,6H,7H-thieno[3,2-c]pyridin-5-yl]propan-1-one]	87.1
CC(Cl)C(=O)NC1CCN(c2nnnn2C)CC1 (centres unmarked) [7-K08, 2-chloro-N-[1-(1-methyl-1H-1,2,3,4-tetrazol-5-yl)piperidin-4-yl]propanamide]	82.1
CC(Cl)C(=O)N1Cc2cnn(C)c2C1 (centres unmarked) [7-K09, 2-chloro-1-{1-methyl-1H,4H,5H,6H-pyrrolo[3,4-c]pyrazol-5-yl}propan-1-one]	87
CC(Cl)C(=O)NC1CCc2nc(-c3cc(F)ccc3F)cn2C1 (centres unmarked) [7-K10, 2-chloro-N-[2-(2,5-difluorophenyl)-5H,6H,7H,8H-imidazo[1,2-a]pyridin-6-yl]propanamide]	77.5
CC(Cl)C(=O)N1CCN(C2=NS(=O)(=O)c3ccccc32)CC1 (centres unmarked) [7-K11, 3-[4-(2-chloropropanoyl)piperazin-1-yl]-1lambda6,2-benzothiazole-1,1-dione]	94.9
CC(Cl)C(=O)N1CCC(c2nc(C3CC3)no2)(C(F)(F)F)C1 (centres unmarked) [7-K12, 2-chloro-1-[3-(3-cyclopropyl-1,2,4-oxadiazol-5-yl)-3-(trifluoromethyl)pyrrolidin-1-yl]propan-1-one]	83.5
CC(Cl)C(=O)NCC1CCCCN1C(=O)C(F)(F)F (centres unmarked) [7-K13, 2-chloro-N-{[1-(2,2,2-trifluoroacetyl)piperidin-2-yl]methyl}propanamide]	83.8
CC(Cl)C(=O)NC1(C(=O)Nc2ccccc2)CC1 (centres unmarked) [7-K14, 1-(2-chloropropanamido)-N-phenylcyclopropane-1-carboxamide]	52
CC(Cl)C(=O)NCc1ccccc1S(=O)(=O)N1CCOCC1 (centres unmarked) [7-K15, 2-chloro-N-{[2-(morpholine-4-sulfonyl)phenyl]methyl}propanamide]	86
CC(Cl)C(=O)N(C)C[C@@H]1C[C@H](F)CN1c1ccnc(N(C)C)n1 (stereo partly drawn) [7-K16, 2-chloro-N-{[(2S,4S)-1-[2-(dimethylamino)pyrimidin-4-yl]-4-fluoropyrrolidin-2-yl]methyl}-N-methylpropanamide]	79.5
CC(Cl)C(=O)N1CCn2c(nn(CC(=O)N(C)C)c2=O)C1 (centres unmarked) [7-K17, 2-[7-(2-chloropropanoyl)-3-oxo-2H,3H,5H,6H,7H,8H-[1,2,4]triazolo[4,3-a]pyrazin-2-yl]-N,N-dimethylacetamide]	83.1

SMILES	viability at 48 h, 25 µM [%]
CC(Cl)C(=O)NCc1nnc(-c2ccncc2F)s1 (centres unmarked) [7-K18, 2-chloro-N-{[5-(3-fluoropyridin-4-yl)-1,3,4-thiadiazol-2-yl]methyl}propanamide]	78.4
CC(Cl)C(=O)NC1CCCN(c2cnn(C)c2)C1 (centres unmarked) [7-K19, 2-chloro-N-[1-(1-methyl-1H-pyrazol-4-yl)piperidin-3-yl]propanamide]	75.7
CC(Cl)C(=O)NC1(C(=O)N(C)C)CC(F)(F)C1 (centres unmarked) [7-K20, 1-(2-chloropropanamido)-3,3-difluoro-N,N-dimethylcyclobutane-1-carboxamide]	83.7
CC(Cl)C(=O)NC(c1cc(Cl)ccc1Cl)C1CCOC1 (centres unmarked) [7-K21, 2-chloro-N-[(2,5-dichlorophenyl)(oxolan-3-yl)methyl]propanamide]	87.9
CC(Cl)C(=O)N1CCN(c2nc3ccccc3o2)C(C)C1 (centres unmarked) [7-K22, 1-[4-(1,3-benzoxazol-2-yl)-3-methylpiperazin-1-yl]-2-chloropropan-1-one]	76.1
O=C(CCl)NC1CCN(C(=O)COc2ccccc2)C1 (centres unmarked) [7-L03, 2-chloro-N-[1-(2-phenoxyacetyl)pyrrolidin-3-yl]acetamide]	0.757
CN1c2ccccc2C(NC(=O)CCl)CS1(=O)=O (centres unmarked) [7-L04, 2-chloro-N-(1-methyl-2,2-dioxo-3,4-dihydro-1H-2lambda6,1-benzothiazin-4-yl)acetamide]	0.505
CC(Cl)C(=O)NCCS(=O)(=O)Nc1ccccn1 (centres unmarked) [7-L05, 2-chloro-N-{2-[(pyridin-2-yl)sulfamoyl]ethyl}propanamide]	103
O=C(CCl)NCC1CCN(C(=O)c2ccccc2)CC1 [7-L06, N-[(1-benzoylpiperidin-4-yl)methyl]-2-chloroacetamide]	0.868
CC(Cl)C(=O)N1CCC(NS(=O)(=O)c2cccs2)CC1 (centres unmarked) [7-L07, N-[1-(2-chloropropanoyl)piperidin-4-yl]thiophene-2-sulfonamide]	99.7
CN(CC(=O)NC1CCC(O)CC1)C(=O)CCl (centres unmarked) [7-L08, 2-chloro-N-{[(4-hydroxycyclohexyl)carbamoyl]methyl}-N-methylacetamide]	0.707
CC(Cl)C(=O)NCCc1ccc[nH]1 (centres unmarked) [7-L09, 2-chloro-N-[2-(1H-pyrrol-2-yl)ethyl]propanamide]	91.9
CCC(c1cc(Cl)cc(Cl)c1)N(C)C(=O)CCl (centres unmarked) [7-L10, 2-chloro-N-[1-(3,5-dichlorophenyl)propyl]-N-methylacetamide]	0.495
CC(Cl)C(=O)N1CCCC1c1cccc2c1OCCO2 (centres unmarked) [7-L11, 2-chloro-1-[2-(2,3-dihydro-1,4-benzodioxin-5-yl)pyrrolidin-1-yl]propan-1-one]	89.6
CC1CCCN1C(=O)CNC(=O)CCl (centres unmarked) [7-L12, 2-chloro-N-[2-(2-methylpyrrolidin-1-yl)-2-oxoethyl]acetamide]	83.6
CC(Cl)C(=O)N1CCC(C(=O)c2cccs2)CC1 (centres unmarked) [7-L13, 2-chloro-1-[4-(thiophene-2-carbonyl)piperidin-1-yl]propan-1-one]	86.7
C[C@H](NC(=O)CCl)C(=O)N1CCCCC1 [7-L14, 2-chloro-N-[(2S)-1-oxo-1-(piperidin-1-yl)propan-2-yl]acetamide]	70.1
CC(Cl)C(=O)N1CCCN(c2ccc(-c3ccccc3)nn2)CC1 (centres unmarked) [7-L15, 2-chloro-1-[4-(6-phenylpyridazin-3-yl)-1,4-diazepan-1-yl]propan-1-one]	76.7
O=C(CCl)NC1Cc2ccccc2N(C(=O)C(F)(F)F)C1 (centres unmarked) [7-L16, 2-chloro-N-[1-(2,2,2-trifluoroacetyl)-1,2,3,4-tetrahydroquinolin-3-yl]acetamide]	0.649
CC(Cl)C(=O)N(Cc1ccco1)C1CCN(C)CC1 (centres unmarked) [7-L17, 2-chloro-N-[(furan-2-yl)methyl]-N-(1-methylpiperidin-4-yl)propanamide]	101
COc1ccccc1[C@H]1C[C@H](NC(=O)CCl)C1 [7-L18, 2-chloro-N-[(1r,3r)-3-(2-methoxyphenyl)cyclobutyl]acetamide]	0.928
CC(Cl)C(=O)NCc1nc(C2CC2)n[nH]1 (centres unmarked) [7-L19, 2-chloro-N-[(3-cyclopropyl-1H-1,2,4-triazol-5-yl)methyl]propanamide]	91.3
O=C(CCl)NCCc1ccn(C2CCCC2)n1 [7-L20, 2-chloro-N-[2-(1-cyclopentyl-1H-pyrazol-3-yl)ethyl]acetamide]	38.7
CC(NC(=O)CCl)c1nnc(-c2ccccc2F)s1 (centres unmarked) [7-L21, 2-chloro-N-{1-[5-(2-fluorophenyl)-1,3,4-thiadiazol-2-yl]ethyl}acetamide]	0.564
Cc1cc(CNC(=O)CCl)[nH]n1 [7-L22, 2-chloro-N-[(3-methyl-1H-pyrazol-5-yl)methyl]acetamide]	90.6
